Reference: patent US10149885B2, “Method of treatment or prophylaxis of infections of the eye” (STARPHARMA PTY LIMITED, priority 2012, dated 2018)
≈ marks a conversion by molar mass, not a printed value. Where two headings read alike, the source gives them in different places.

Columns and labels:
[1] = test system: Gardnerella vaginalis ATCC 14018 (MMX 4153); experiment: Serial passage resistance development, MIC; format: cell-based; settings: for MIC: Gardnerella vaginalis
[2] = test system: Mobiluncus curtisii ATCC 35241 (MMX 4145); experiment: Serial passage resistance development, MIC; format: cell-based; settings: for MIC: Mobiluncus curtisii
Adenovirus = experiment: Plaque reduction neutralization test (NR), positive control, subtype not given; format: cell-based; settings: unidentified adenovirus
Method: (§1) The Plaque reduction neutralization test (NR) is used to quantify the ability of a dendrimer to neutralize/inactivate virus. The dendrimer solution to be tested is diluted and mixed with a viral suspension. This is incubated to allow the dendrimer to react with the virus. This is poured over a confluent monolayer of host cells. The surface of the cell layer is covered in a layer of agar or carboxymethyl cellulose to prevent the virus from spreading. The concentration of plaque forming units can be estimated by the number of plaques (regions of infected cells) formed after a few days. Depending on the virus, the plaque forming units are measured by microscopic observation, fluorescent labelled antibodies or specific dyes that react with infected cells. The concentration of dendrimer to reduce the number of plaques by 50% compared to the dendrimer free virus gives the EC50 value.
Ribivirin was included as a positive control.

[3] = test system: Lactobacillus acidophilus MMX 5716; experiment: Serial passage resistance development, MIC; format: cell-based; settings: for MIC: Lactobacillus acidophilus
[4] = test system: Prevotella bivia MMX 3447; experiment: Serial passage resistance development, MIC; format: cell-based; settings: for MIC: Prevotella bivia
[5] = test system: Adenovirus subtype 8 (ATCC #VR-1640); experiment: Adenoviral replication titer reduction, drug added after infection (control protocol); format: cell-based; settings: for Percent reduction of adenoviral replication: Adeno-8, A549 cells
Excerpt: (§2) Adenovirus subtype 5 (ATCC #VR-5) was used with HeLa cells (ATCC #CCL-2), Adenovirus subtype 8 (ATCC #VR-1640) was used with A549 cells (ATCC #CCL-185), Adenovirus subtype 19 (ATCC #VR-254) was used with Chang C cells (ATCC #CCL-20.2) and Adenovirus 37 (ATCC #VR-929) was used with WI-38 cells (ATCC #CCL-75). Both epithelial and fibroblast cell types were used. The recovered virus was titrated in the susceptible cell lines by performing dilutions at 1/10 to 1/100,000 and addition to cells in plates. When cytopathic effect (CPE) was apparent in the virus control, titration plates were classified as positive or negative for cytopathic effect and based on the dilution of the virus applied to the different plates, the 50% tissue-culture infective dose (TCID50) was calculated using the Spearman-Kärber method (Hubert, J J (1984) Spearman-Karber Method in Bioaasay. Hunt, Dubuque, Iowa, pp 65, 66). The TCID50 establishes the dilution at which 50% of the plates show a cytopathic effect (infection). Comparing the TCID50 for sample without SPL7013 with the TCID50 values for samples with different concentrations of SPL7013 provides a measure of the percent reduction of infection achieved by each concentration of SPL7013. This percent reduction represents the activity of SPL7013 against penetration of cells with adenoviruses. A control substance (cidofovir) was tested alongside SPL7013 at 20 μg/mL, 2 μg/mL, 0.2 μg/mL and 0.02 μg/mL (Gordon Y J, Antiviral Research, 1991, 16(1), 11-16). Because cidofovir acts later in the viral replication cycle, target cells were first infected with 0.1 MOI virus and incubated 60 minutes at 37° C.±2° C. Virus was removed, cidofovir was added at the respective concentrations and cells were incubated until CPE reached its maximum. Cells were then lysed and virus was titrated as described above.

[6] = test system: Adenovirus 37 (ATCC #VR-929); experiment: as above; format: cell-based; settings: for Percent reduction of adenoviral replication: Adeno-37, WI-38 cells
Excerpt: as §2

[7] = test system: Adenovirus subtype 5 (ATCC #VR-5); experiment: as above; format: cell-based; settings: for Percent reduction of adenoviral replication: Adeno-5, HeLa cells
Excerpt: as §2

[8] = test system: Adenovirus subtype 19 (ATCC #VR-254); experiment: as above; format: cell-based; settings: for Percent reduction of adenoviral replication: Adeno-19, Chang C cells
Excerpt: as §2

Ad5 McEwen = experiment: In vivo treatment of adenoviral eye infection, ocular cultures titred by plaque assay; parameters: species or system NZW female rabbits; settings: 0.5% cidofovir in saline, 37 μL per eye twice a day, n = 8-10
Method: Following general anesthesia and corneal scarification, NZW female rabbits were inoculated in each eye with 50 μl of 3.0×10^7 PFU/mL (1.5×10^6 PFU/eye) of Ad5 McEwen. At about 3 hours after inoculation, a swab was taken of the tear film and corneal and conjunctival surfaces into tubes containing 1 mL of outgrowth media, and cultured for adenovirus.
The rabbits were then divided into 3 groups: 3% SPL7013 (n=5), Vehicle (n=5) and 0.5% cidofovir in saline as positive control (n=4). Commencing on day 1, animals were treated in each eye with 37 μL of drug 8 times a day, or 37 μL of control twice a day. Swabs of the tear film and corneal and conjunctival surfaces were taken one hour after treatment.
Ad5 titers were determined on A549 lung carcinoma cell monolayers using a standard plaque assay. The ocular cultures were diluted and inoculated onto A549 monolayers, and the virus adsorbed for 3 hours. Following adsorption, 1 mL of media plus 0.5% methylcellulose was added to each well, and the plates were incubated at 37° C. in a 5% CO2-water vapor atmosphere for 7 days, then stained with 0.5% gentian violet, and plaques were counted.

Adeno-1 [9] = experiment: Plaque reduction neutralization test (NR); format: cell-based, Adenovirus; settings: Adeno-1/NR
Method: as §1

Adeno-1 [10] = experiment: Cytopathic assay (CPE); format: cell-based, Adenovirus; settings: Adeno-1/CPE
Method: For the Cytopathic assay (CPE) Plates of cells were incubated with the respective adenovirus subtype and drug at different drug concentrations. Cells were incubated until a Cytopathic effect was clearly observed in plates where cells and virus were plated without drug. In plates where drug was added, the cytopathic effect was quantified using a light microscope and expressed as 0% (no effect) up to 100% (effect as strong as in the no drug control plates). CPE readings were plotted against the drug concentration and the EC50 value was determined as the drug concentration where 50% CPE was observed.

Adeno-5 = experiment: Plaque reduction neutralization test (NR); format: cell-based, Adenovirus; settings: Adeno-5/NR
Method: as §1

[11] = ATCC14018, read-out: MIC after serial passage
[12] = ATCC14018, read-out: MIC at baseline

Cc1ncc([N+](=O)[O-])n1CCO [Metronidazole]
MIC [1, 11]: > 128 µg/mL
MIC [1, 12]: 4 µg/mL (≈ 23.4 µM)
Fold increase of MIC ([1]; by passage 7): > 64 fold
MIC ([2]; ATCC35241, read-out: MIC after serial passage): > 128 µg/mL
MIC ([2]; ATCC35241, read-out: MIC at baseline): 8 µg/mL (≈ 46.7 µM)
Fold increase of MIC ([2]; by passage 5): > 16 fold

NC(=O)c1ncn([C@@H]2O[C@H](CO)[C@@H](O)[C@H]2O)n1 [Ribavirin]
EC50 (Adenovirus): 10 µg/mL (≈ 40.9 µM)

CO[C@H]1/C=C/O[C@@]2(C)Oc3c(C)c(O)c4c(O)c(c5c(nc6cc(C)ccn65)c4c3C2=O)NC(=O)/C(C)=C\C=C\[C@H](C)[C@H](O)[C@@H](C)[C@@H](O)[C@@H](C)[C@H](OC(C)=O)[C@@H]1C [Rifaximin]
MIC ([3]; MMX5716, read-out: MIC after serial passage): 64 µg/mL (≈ 81.4 µM)
MIC ([3]; MMX5716, read-out: MIC at baseline): 1 µg/mL (≈ 1.27 µM)
Fold increase of MIC ([3]; by passage 9): 64 fold
MIC [1, 11]: 128 µg/mL (≈ 163 µM)
MIC [1, 12]: 0.06 µg/mL (≈ 0.0763 µM)
Fold increase of MIC ([1]; by passage 9): > 2000 fold
Change of MIC during passage (in words) ([2]; 10 serial passages): No apparent increase
MIC ([4]; MMX3447, read-out: MIC after serial passage): 0.12 µg/mL (≈ 0.153 µM)
MIC ([4]; MMX3447, read-out: MIC at baseline): 0.03 µg/mL (≈ 0.0382 µM)
Fold increase of MIC ([4]; passage number not given): 4 fold

Nc1ccn(C[C@@H](CO)OCP(=O)(O)O)c(=O)n1 [cidofovir]
Percent reduction of adenoviral replication ([5]; cidofovir 0.02 μg/mL): 90.00%
Percent reduction of adenoviral replication ([5]; cidofovir 0.2 μg/mL): 98.22%
Percent reduction of adenoviral replication ([5]; cidofovir 2 μg/mL): 98.67%
Percent reduction of adenoviral replication ([5]; cidofovir 20 μg/mL): 99.00%
IC50 ([5]; unidentified adenovirus, Adeno-8, estimated, molar basis (279 g/mol)): 112 nM
Percent reduction of adenoviral replication ([6]; cidofovir 0.02 μg/mL): 0.00%
Percent reduction of adenoviral replication ([6]; cidofovir 0.2 μg/mL): 57.83%
Percent reduction of adenoviral replication ([6]; cidofovir 2 μg/mL): 99.99%
Percent reduction of adenoviral replication ([6]; cidofovir 20 μg/mL): >99.99%
IC50 ([6]; unidentified adenovirus, Adeno-37, estimated, molar basis (279 g/mol)): 112 nM
Percent reduction of adenoviral replication ([7]; cidofovir 0.02 μg/mL): 68.38%
Percent reduction of adenoviral replication ([7]; cidofovir 0.2 μg/mL): 82.22%
Percent reduction of adenoviral replication ([7]; cidofovir 2 μg/mL): 86.66%
Percent reduction of adenoviral replication ([7]; cidofovir 20 μg/mL): 90.00%
IC50 ([7]; unidentified adenovirus, Adeno-5, estimated, molar basis (279 g/mol)): 559 nM
Percent reduction of adenoviral replication ([8]; cidofovir 0.02 μg/mL): 0.00%
Percent reduction of adenoviral replication ([8]; cidofovir 0.2 μg/mL): 0.00%
Percent reduction of adenoviral replication ([8]; cidofovir 2 μg/mL): 43.77%
Percent reduction of adenoviral replication ([8]; cidofovir 20 μg/mL): 94.38%
IC50 ([8]; unidentified adenovirus, Adeno-19, estimated, molar basis (279 g/mol)): 52.4 µM
% Ad5 -Positive cultures (Ad5 McEwen; Day 0 (before treatment)): 100%
% Ad5 -Positive cultures (Ad5 McEwen; Day 1): 100%
% Ad5 -Positive cultures (Ad5 McEwen; Day 3): 100%
% Ad5 -Positive cultures (Ad5 McEwen; Day 4): 75%

[BHALys][Lys]32deoxycholicacid[NHCSNH-4-ph-SO3Na]63
EC50 (Adeno-1 [9]): 10 µg/mL
EC50 (Adeno-1 [10]): 20 µg/mL

[NH3][PAMAM]2[CSNH-3,5-Ph(SO3Na)2]24
EC50 (Adeno-5): 150 µg/mL

[NH3][PAMAM]4NHCSNH-2-naphth-5,7-(SO3Na)2]24
EC50 (Adeno-1 [10]): 20 µg/mL
